According to DBAASP:
≈ marks a conversion by molar mass, not a printed value. Where “and” joins values, the source holds several entries; their conditions need not be identical. Equal values may be shown once. Values belong to the compound of their own block, whether it stands above or below them.

Key:
Experiment in all cases: ≥ marks a high value that may be exact or a test limit, other limits are often not marked, values filed in µg/mL are converted to µM
[1] = system: Streptococcus mutans UA159
[2] = system: Pseudomonas aeruginosa PAK
[3] = system: Streptococcus mitis ATCC 903
[4] = system: Streptococcus sanguinis NY101
Staphylococcus aureus = system: Staphylococcus aureus
[5] = system: Streptococcus gordonii Challis DL1
[6] = system: Staphylococcus aureus NBRC 13276
[7] = system: Escherichia coli DH5alpha
[8] = system: Pseudomonas aeruginosa NBRC 13275
[9] = system: Listeria monocytogenes DSM 20600
[10] = system: Micrococcus luteus DSM 20030
Escherichia coli D31 = system: Escherichia coli D31
[11] = system: Listeria fleischmannii DSM 24998
Listeria grayi DSM 20601 = system: Listeria grayi DSM 20601
[12] = system: Lacticaseibacillus casei NCDO 2713
[13] = system: Latilactobacillus sakei 706
[14] = system: Latilactobacillus sakei NCDO 2714
[15] = system: Carnobacterium maltaromaticum UI49
[16] = system: Pediococcus pentosaceus NCDO 990
[17] = system: Lactiplantibacillus plantarum UI50
[18] = system: Pediococcus acidilactici CH
[19] = system: Lactiplantibacillus plantarum 965
[20] = system: Pediococcus pentosaceus Pac1.0
[21] = system: Latilactobacillus curvatus 89
[22] = system: Lacticaseibacillus casei subsp. casei NCDO 161
[23] = system: Weissella viridescens NCDO 1655
[24] = system: Staphylococcus saprophyticus
[25] = system: Bacillus subtilis CCT 2471
[26] = system: Staphylococcus aureus ATCC 6538
[27] = system: Staphylococcus epidermidis
Bacillus thuringiensis = system: Bacillus thuringiensis
[28] = system: Escherichia coli ATCC 25922
[29] = system: Staphylococcus aureus ATCC 25923
[30] = system: Escherichia coli CCT 1371
[31] = system: Enterobacter cloacae ATCC 23355
[32] = system: Pseudomonas aeruginosa ATCC 15442
Proteus mirabilis = system: Proteus mirabilis
Escherichia coli ML-35p = system: Escherichia coli ML-35p
[33] = system: Staphylococcus aureus ATCC 33591
Candida albicans 820 = system: Candida albicans 820
[34] = system: Listeria monocytogenes EGD

MIC [1]: 2.78 µM (≈ 8 µg/mL) | MIC [2]: ≥ 43.5 µM | MIC [3]: 5.57 µM (≈ 16 µg/mL) | MIC [4]: 11.1 µM (≈ 32 µg/mL) | MIC (Staphylococcus aureus): 21.7 µM (≈ 62.5 µg/mL) | MIC [5]: 11.1 µM (≈ 32 µg/mL)
Structure (SMILES): CC[C@H](C)[C@H](NC(=O)CNC(=O)CNC(=O)CNC(=O)[C@H](Cc1ccccc1)NC(=O)[C@H](CCCN=C(N)N)NC(=O)[C@H](Cc1cnc[nH]1)NC(=O)[C@@H](NC(=O)[C@H](Cc1ccccc1)NC(=O)[C@H](Cc1cnc[nH]1)NC(=O)[C@H](CCCCN)NC(=O)[C@@H](NC(=O)[C@@H](N)Cc1ccccc1)[C@@H](C)CC)[C@@H](C)CC)C(=O)N[C@@H](CCCCN)C(=O)N[C@@H](CCC(N)=O)C(=O)N[C@@H](CC(C)C)C(=O)N[C@@H](CC(C)C)C(=O)N[C@@H](Cc1cnc[nH]1)C(=O)N[C@@H](Cc1ccccc1)C(=O)N[C@@H](Cc1ccccc1)C(=O)N[C@@H](CCC(N)=O)C(=O)N[C@@H](CCCN=C(N)N)C(=O)N[C@@H](Cc1ccccc1)C(N)=O [FIKHFIHRFGGGIKQLLHFFQRF]

MIC [6]: ≥ 200 µM | MIC [7]: ≥ 50 µM | MIC [8]: 25 µM (≈ 62.7 µg/mL)
Structure (SMILES): CC[C@H](C)[C@H](NC(=O)CNC(C)=O)C(=O)NCC(=O)N[C@@H](CCCCN)C(=O)N[C@@H](Cc1ccccc1)C(=O)N[C@@H](CC(C)C)C(=O)N[C@@H](Cc1cnc[nH]1)C(=O)N[C@@H](CO)C(=O)N[C@@H](C)C(=O)N[C@@H](CCCCN)C(=O)N[C@@H](CCCCN)C(=O)N[C@@H](Cc1ccccc1)C(=O)NCC(=O)N[C@@H](CCCCN)C(=O)N[C@@H](C)C(=O)N[C@@H](Cc1ccccc1)C(=O)N[C@H](C(=O)NCC(=O)N[C@@H](CCC(=O)O)C(=O)N[C@H](C(=O)N[C@@H](CCSC)C(=O)N[C@@H](CC(N)=O)C(=O)N[C@@H](CO)C(N)=O)[C@@H](C)CC)C(C)C [GIGKFLHSAKKFGKAFVGEIMNS]

Structure (SMILES): CC[C@H](C)[C@H](N)C(=O)N[C@@H](Cc1ccccc1)C(=O)N[C@@H](CCCCN)C(=O)N[C@@H](C)C(=O)N[C@H](C(=O)N[C@@H](Cc1c[nH]c2ccccc12)C(=O)N[C@@H](CO)C(=O)NCC(=O)N[C@H](C(=O)N[C@@H](CCCCN)C(=O)N[C@@H](CO)C(=O)N[C@@H](CC(C)C)C(=O)N[C@@H](Cc1ccccc1)C(=O)O)[C@@H](C)CC)[C@@H](C)CC [IFKAIWSGIKSLF]
MIC [9]: 2 µM (≈ 3.02 µg/mL) | MIC [10]: 2 µM (≈ 3.02 µg/mL) | MIC (Escherichia coli D31): 15 µM (≈ 22.6 µg/mL) | MIC [11]: 2 µM (≈ 3.02 µg/mL) | MIC (Listeria grayi DSM 20601): 2 µM (≈ 3.02 µg/mL)

MIC [12]: 6 µM (≈ 17.9 µg/mL) | MIC [13]: 0.5 µM (≈ 1.49 µg/mL) | MIC [14]: 0.06 µM (≈ 0.179 µg/mL) | MIC [15]: 6 µM (≈ 17.9 µg/mL) | MIC [16]: 6 µM (≈ 17.9 µg/mL) | MIC [18]: 0.5 µM (≈ 1.49 µg/mL) | MIC [20]: 0.1 µM (≈ 0.299 µg/mL) | MIC [21]: 0.5 µM (≈ 1.49 µg/mL) | MIC [22]: 0.25 µM (≈ 0.746 µg/mL) | MIC [23]: 0.02 µM (≈ 0.0597 µg/mL)
Structure (SMILES): CC[C@H](C)[C@H](NC(=O)[C@H](C)NC(=O)[C@@H](NC(=O)[C@H](C)NC(=O)CNC(=O)[C@H](CCSC)NC(=O)[C@H](CCC(N)=O)NC(=O)[C@H](CC(C)C)NC(=O)[C@H](CO)NC(=O)[C@H](Cc1ccc(O)cc1)NC(=O)[C@H](C)NC(=O)[C@H](CO)NC(=O)[C@H](CO)NC(=O)[C@@H](N)CCCCN)[C@@H](C)O)C(=O)N[C@@H](CCCCN)C(=O)N[C@@H](CCC(N)=O)C(=O)N[C@H](C(=O)N[C@@H](CCCCN)C(=O)N[C@@H](CCCCN)C(=O)N[C@@H](CC(C)C)C(=O)N[C@@H](Cc1ccccc1)C(=O)N[C@@H](CCCCN)C(=O)N[C@@H](CCCCN)C(=O)N[C@@H](Cc1c[nH]c2ccccc12)C(=O)NCC(=O)N[C@@H](Cc1c[nH]c2ccccc12)C(=O)O)C(C)C [KSSAYSLQMGATAIKQVKKLFKKWGW]
MIC [17]: 6 µM (≈ 17.9 µg/mL) | MIC [19]: 0.3 µM (≈ 0.896 µg/mL)

MIC [24]: 6 µM (≈ 9.87 µg/mL) | MIC [25]: ≥ 60 µM | MIC [26]: > 60 µM | MIC [27]: ≥ 60 µM | MIC (Bacillus thuringiensis): ≥ 60 µM | MIC [28]: 6 µM (≈ 9.87 µg/mL) | MIC [29]: 6 µM (≈ 9.87 µg/mL) | MIC [30]: 6 µM (≈ 9.87 µg/mL) | MIC [31]: ≥ 60 µM | MIC [32]: 30 µM (≈ 49.4 µg/mL) | MIC (Proteus mirabilis): ≥ 60 µM
Structure (SMILES): CC[C@H](C)[C@H](NC(=O)CNC(=O)[C@H](CCCCN)NC(=O)[C@H](CC(C)C)NC(=O)[C@H](CC(N)=O)NC(=O)[C@@H](N)CC(C)C)C(=O)N[C@@H](Cc1ccccc1)C(=O)N[C@@H](CCCCN)C(=O)N[C@@H](CCCCN)C(=O)N[C@H](C(=O)N[C@@H](C)C(=O)N[C@@H](CO)C(=O)N[C@@H](CC(C)C)C(=O)N[C@@H](CC(C)C)C(=O)N[C@H](C(=O)O)[C@@H](C)O)C(C)C [LNLKGIFKKVASLLT]

MIC (Escherichia coli ML-35p): 2 µM and 3.1 µM | MIC [33]: 4.5 µM and 7.8 µM | MIC (Candida albicans 820): 2.6 µM and 3.8 µM | MIC [34]: 1.2 µM and 1.9 µM
Structure (SMILES): CC[C@H](C)[C@@H]1NC(=O)[C@H](CC(N)=O)NC(=O)[C@@H]2CSSC[C@@H]3NC(=O)[C@H](CCCN=C(N)N)NC(=O)[C@@H](NC(=O)[C@@H](NC(=O)[C@@H](N)CCCN=C(N)N)[C@@H](C)O)CSSC[C@@H](C(=O)N[C@@H](CCCN=C(N)N)C(=O)O)NC(=O)[C@H](CSSC[C@H](NC(=O)[C@H](CCCN=C(N)N)NC(=O)CNC(=O)[C@H](CC(C)C)NC(=O)[C@H](CCCN=C(N)N)NC3=O)C(=O)N[C@@H](CO)C(=O)N[C@@H](CCCN=C(N)N)C(=O)N[C@@H](CCCN=C(N)N)C(=O)N[C@@H](CCC(=O)O)C(=O)N[C@@H](CO)C(=O)N[C@@H](Cc3ccc(O)cc3)C(=O)N[C@@H](CO)C(=O)NCC(=O)N[C@@H](CO)C(=O)N2)NC(=O)[C@H](CC(C)C)NC(=O)[C@H](CO)NC(=O)[C@H](Cc2ccc(O)cc2)NC(=O)[C@H]([C@@H](C)CC)NC(=O)[C@H](CCCN=C(N)N)NC(=O)CNC(=O)[C@H](CC(N)=O)NC1=O [RTCRCRLGRCSRRESYSGSCNINGRIYSLCCR]
